# Source: US20260085067A1, “CYCLIC SULFONAMIDE RIBONUCLEOTIDE REDUCTASE (RNR) INHIBITORS AND USES THEREOF” (Boundless Bio, Inc., priority 2022, published 2026)
# Tests used:
# [1] = tested on: pCHK1 (S345) in Colo320 DM cells; assay: Alphalisa assay, detection of pCHK1 (S345) in Colo320 DM cells; type: cell-based, human; conditions: Homo sapiens, COLO 320DM, compound overnight (approximately 16 hours)
# Method in brief: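 Colo320 DM cells plated overnight, then exposed to compound for about 16 h at 37 °C (DMSO <0.5%). Cells lysed and phospho-CHK1 (S345) quantified by AlphaLisa SureFire with sequential 60 min acceptor and donor incubations at room temperature.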
# RNR (RNR1:RNR2 1:1) = target: T1, RNR (RNR1:RNR2 1:1) (Homo sapiens, UniProt P23921); assay: RNR enzyme activity, rapid-fire mass spectrometry (RF/MS) assay; type: biochemical; conditions: [RNR] 50 nM, 1:1 RNR1:RNR2; CDP 5 μM; ATP 1 mM; 37° C., 45 min; compounds screened up to 50 μM
# T1 sequence (P23921 1-792): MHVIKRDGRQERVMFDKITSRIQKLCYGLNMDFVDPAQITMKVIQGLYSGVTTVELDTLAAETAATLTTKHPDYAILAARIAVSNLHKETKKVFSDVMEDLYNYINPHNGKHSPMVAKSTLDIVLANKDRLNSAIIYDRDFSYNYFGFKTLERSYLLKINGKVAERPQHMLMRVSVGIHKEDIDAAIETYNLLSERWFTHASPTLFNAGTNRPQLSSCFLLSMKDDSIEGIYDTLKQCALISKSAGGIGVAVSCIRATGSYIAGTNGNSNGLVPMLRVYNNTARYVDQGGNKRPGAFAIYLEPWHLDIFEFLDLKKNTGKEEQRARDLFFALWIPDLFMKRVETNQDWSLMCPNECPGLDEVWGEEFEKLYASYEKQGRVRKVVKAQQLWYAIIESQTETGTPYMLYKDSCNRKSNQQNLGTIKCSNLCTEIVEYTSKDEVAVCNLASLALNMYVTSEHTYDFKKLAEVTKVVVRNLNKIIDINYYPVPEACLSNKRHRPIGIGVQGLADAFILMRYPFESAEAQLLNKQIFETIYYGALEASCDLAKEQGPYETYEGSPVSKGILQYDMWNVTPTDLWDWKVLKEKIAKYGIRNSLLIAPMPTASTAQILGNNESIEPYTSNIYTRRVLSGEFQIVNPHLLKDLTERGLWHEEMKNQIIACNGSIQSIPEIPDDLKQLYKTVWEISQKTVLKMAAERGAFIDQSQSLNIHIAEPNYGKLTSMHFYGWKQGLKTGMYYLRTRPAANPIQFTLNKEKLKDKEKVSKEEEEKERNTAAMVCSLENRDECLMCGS
# Method in brief: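 Human RNR (50 nM final, RNR1:RNR2 1:1) pre-incubated 15 min at room temperature, then reacted 45 min at 37 °C with 5 μM CDP and 1 mM ATP, no NADPH. Reaction quenched with 6% HCOOH; product quantified by rapid-fire mass spectrometry.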
# human hepatocytes = assay: Human hepatocyte stability assay; type: in vitro ADME; conditions: 0.5×10^6 viable cells/ml, time points 0.5 and 60 minutes
# Description: 1. 10 mM stock solutions of test compounds and positive control were prepared in DMSO. Thawing medium and supplement incubation medium (serum-free) were placed in a 37° C. water bath for at least 15 minutes prior to use.
# 2. Stock solutions were diluted to 100 μM by combining 198 μL acetonitrile and 2 μL of 10 mM stock solution. Verapamil was use as positive control in the assay.
# 3. Vials of cryopreserved human hepatocytes were removed from storage, while ensuring that vials remain at cryogenic temperatures. The pressure was removed by loosening and re-tightening the cap. The vials were thawed in a 37° C. water bath with gentle shaking. Vials remained in the water bath until all ice crystals had dissolved and were no longer visible. Vials were sprayed with 70% ethanol before being transferred to a biosafety cabinet. Then the contents were poured into a 50 mL thawing medium conical tube. Vials were centrifuged at 100 g for 10 minutes at room temperature. Thawing medium was aspirated and hepatocytes were re-suspended with serum-free incubation medium to yield ˜1.5×10^6 cells/mL.
# 4. Cell viability and density were counted using Cellometer® Vision, and then cells were diluted with serum-free incubation medium to a working cell density of 0.5×10^6 viable cells/ml.
# 5. Aliquots of 198 μL hepatocytes were dispensed into each well of a 96-well non-coated plate. The plate was placed in the incubator on an orbital shaker at 500 rpm for approximately 10 minutes.
# 6. Aliquots of 2 μL of the 100 μM test compounds or verapamil were added into respective wells of the non-coated 96-well plate to start the reaction. This assay was performed in duplicate. The plate was incubated in the incubator on an orbital shaker at 500 rpm for the designed time points.
# 7.25 μL of contents were transferred and mixed with 5 volumes (125 μL) of cold acetonitrile with IS (100 nM alprazolam, 200 nM caffeine, 100 nM labetalol and 100 nM tolbutamide) to terminate the reaction at time points of 0.5 and 60 minutes. Samples were centrifuged for 30 minutes at 3,220 g. Then transfer 100 μL of the supernatant to new 96-well plates for analysis. Add 100 μL of distilled water to each sample and mix for analysis by LC-MS/MS.
# All calculations were carried out using Microsoft Excel. Peak areas were determined from extracted ion chromatograms. The in vitro half-life (tin) of the parent compound was determined by regression analysis of the percent parent disappearance vs. time curve. • a. The in vitro half-life (in vitro tin) was determined from the slope value: in vitro t1/2=0.693/k • b. Conversion of the in vitro tin (in min) into the in vitro intrinsic clearance (in vitro CLint, in μL/min/10^6 cells) was done using the following equation: […]
SMILES,IC50 [1],IC50 (RNR (RNR1:RNR2 1:1)),Clhep (human hepatocytes)
"COCCCN1CN([C@H](c2n[nH]c(=O)o2)[C@H](C)c2c(F)ccc(C)c2C)S(=O)(=O)c2ccc(Cl)nc21 [Example 48, 5-((1S,2R)-1-(6-chloro-4-(3-methoxypropyl)-1,1-dioxido-3,4-dihydro-2H-pyrido[2,3-e][1,2,4]thiadiazin-2-yl)-2-(6-fluoro-2,3-dimethylphenyl)propyl)-1,3,4-oxadiazol-2 (3H)-one]",≤ 1000 nM,< 20 nM,A (0 ml/min/kg ≤ Clhep ≤ 10 ml/min/kg)
"CC(=O)c1cc(Cl)cc2c1S(=O)(=O)N([C@H](c1n[nH]c(=O)o1)[C@H](C)c1c(F)ccc(C)c1C)CCO2 [Example 60, 5-((1S,2R)-1-(9-acetyl-7-chloro-1,1-dioxido-3,4-dihydro-2H-benzo[b][1,4,5]oxathiazepin-2-yl)-2-(6-fluoro-2,3-dimethylphenyl)propyl)-1,3,4-oxadiazol-2 (3H)-one]",≤ 1000 nM,< 20 nM,B (10 ml/min/kg < Clhep ≤ 20 ml/min/kg)
"Cc1ccc(F)c([C@@H](C)[C@@H](c2n[nH]c(=O)o2)N2CN(C)c3cc(Cl)ccc3S2(=O)=O)c1C [Example 1, 5-((1S,2R)-1-(6-chloro-4-methyl-1,1-dioxido-3,4-dihydro-2H-benzo[e][1,2,4]thiadiazin-2-yl)-2-(6-fluoro-2,3-dimethylphenyl)propyl)-1,3,4-oxadiazol-2(3H)-one]",≤ 1000 nM,< 20 nM,A (0 ml/min/kg ≤ Clhep ≤ 10 ml/min/kg)
